Where two headings read alike, the source gives them in different places. Values belong to the compound of their own block, whether it stands above or below them.
What was measured:
SMN2 Full reporter = SMN2 Full reporter gene assay (luciferase) in NSC34 stable line; type: cell-based; settings: NSC-34, Biological Example 2, 24 hours, BrightGlo, read-out: SMN Activity (EC50)
Source text: SMN2 Full Reporter Construct:
pSMN2 Splicing Luciferase reporter was constructed according to Zhang et al., (An in vivo reporter system for measuring increased inclusion of exon 7 in SMN2 mRNA: potential therapy of SMA. Gene Ther. 2001 October; 8(20):1532-8) via overlapping PCR. The final PCR fragment containing Exon6-Intron6-Exon7 (with a C insertion before 49T)-Intron7-Exon8-Luciferase was inserted to BamHI and NotI site of pCAG-IRESblast expression vector (Chen et al., Establishment and Maintenance of Genomic Methylation Patterns in Mouse Embryonic Stem Cells by Dnmt3a and Dnmt3b. Mol Cell Biol. 2003 August; 23(16):5594-605).
Human SMN2 exon1-exon6 cDNA were amplified by PCR (Forward primer: […]; reverse primer: […]), and Exon6-Intron6 (Forward primer: […]; reverse primer: […]) were fused by overlap PCR to create Exon1-Intron6 fragment, and was inserted into pSMN2 splicing Luciferase reporter via BamHI and HindIII sites to create pSMN2 exon1-6 splicing reporter. SMN2 promoter 5.1 kb fragment was amplified from human genomic DNA by PCR (Forward primer: […]; reverse primer: […]), and inserted between MluI site and BamHI site (Blunted using DNA blunting kit, Takara, Cat #6025) of pSMN2 exon1-6 splicing reporter to replace chicken β-actin promoter and the human cytomegalovirus immediate early enhancer, to finalize the pSMN2-Full-reporter.
SMN2 Full Reporter Stable Clone in NSC34 Cells:
pSMN2-Full reporter was stably transfected into NSC34 cells using Lipofectamine 2000, which were subsequently selected in blasticidin-containing medium for two weeks. Blasticidin-resistant colonies were screened by Luciferase signal and response to SAHA as well as by RT-PCR for alternative splicing of Exon7.
NSC34 SMN2 Full reporter stable line was cultured in DMEM (Invitrogen, Cat:11965)+10% FBS+7 μg/ml Blasticidin. Cells in culture media without Blasticidin were seeded into a 384-well plate at a density of 6000 cells/well and treated with compounds for 24 hours. Luciferase signal was assessed by BrightGlo assay. Eequal volume of BrightGlo reagent (Promega, Cat #E2620) was added to the cells and incubated for 10 minutes at room temperature. Luminescent signal was read in either BioTek or Envision plate reader.
Reporter gene assay conditions: compound concentration range 3 nM-10 uM.

SMN protein = test: cellular SMN ELISA (SMN protein elevation) in myoblast cell line from SMNdelta7 mouse model; type: cell-based
Summary of the method: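 SMNdelta7 mouse myoblasts were treated with compounds for 24 h (20 nM–10 uM or 100 pM–10 uM), lysed in modified RIPA buffer, and SMN quantified by sandwich ELISA with HRP/TMB read at 450 nm. Values are fold activation over DMSO control and EC50.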

[1] = comparison of unsubstituted, ortho-hydroxy and ortho-alkoxy pyridazines, as in Biological Example 1
[2] = comparison of unsubstituted, ortho-hydroxy and ortho-alkoxy pyridazines, as in Biological Example 1, read-out: SMN ELISA EC50

Compound: Cc1cc2cc(O)c(-c3ccc(N(C)C4CC(C)(C)NC(C)(C)C4)nn3)cc2c(C)n1 [Example 29-3, 1,3-dimethyl-7-(6-(methyl(2,2,6,6-tetramethylpiperidin-4-yl)amino)pyridazin-3-yl)isoquinolin-6-ol]
- EC50 (SMN2 Full reporter): 40 nM

Compound: Cc1cc2cc(-c3ccc(N(C)C4CC(C)(C)NC(C)(C)C4)nn3)c(O)cc2c(C#N)n1 [Example 30-1, 7-hydroxy-3-methyl-6-(6-(methyl(2,2,6,6-tetramethylpiperidin-4-yl)amino)pyridazin-3-yl)isoquinoline-1-carbonitrile]
- EC50 (SMN2 Full reporter): 30 nM

Compound: CN(c1ccc(-c2cc3c(N)nccc3cc2O)nn1)C1CC(C)(C)NC(C)(C)C1 [Example 31-1, 1-amino-7-(6-(methyl(2,2,6,6-tetramethylpiperidin-4-yl)amino)pyridazin-3-yl)isoquinolin-6-ol]
- EC50 (SMN2 Full reporter): 25 nM

Compound: CN(c1ccc(-c2cc3c(=O)n(C)c(=O)n(C)c3cc2O)nn1)C1CC(C)(C)NC(C)(C)C1 [Example 32-1, 7-hydroxy-1,3-dimethyl-6-(6-(methyl(2,2,6,6-tetramethylpiperidin-4-yl)amino)pyridazin-3-yl)quinazoline-2,4(1H,3H)-dione]
- EC50 (SMN2 Full reporter): 133 nM

Compound: CN(c1ccc(-c2cc3[nH]c(=O)oc3cc2O)nn1)C1CC(C)(C)NC(C)(C)C1 [Example 33-1, 6-hydroxy-5-(6-(methyl(2,2,6,6-tetramethylpiperidin-4-yl)amino)pyridazin-3-yl)benzo[d]oxazol-2(3H)-one]
- EC50 (SMN2 Full reporter): 3000 nM

Compound: CN(c1ccc(-c2cc3cn(C)nc3cc2O)nn1)C1CC(C)(C)NC(C)(C)C1 [Example 34-1, 2-methyl-5-(6-(methyl(2,2,6,6-tetramethylpiperidin-4-yl)amino)pyridazin-3-yl)-2H-indazol-6-ol]
- EC50 (SMN2 Full reporter): 150 nM

Compound: CN(c1ccc(-c2cc3cnn(C)c3cc2O)nn1)C1CC(C)(C)NC(C)(C)C1 [Example 34-2, 1-methyl-5-(6-(methyl(2,2,6,6-tetramethylpiperidin-4-yl)amino)pyridazin-3-yl)-1H-indazol-6-ol]
- EC50 (SMN2 Full reporter): 220 nM

- EC50 (SMN2 Full reporter): 363 nM
Compound: CCn1ccc2cc(O)c(-c3ccc(OC4CC(C)(C)NC(C)(C)C4)nn3)cc2c1=O [Example 35-2, 2-ethyl-6-hydroxy-7-(6-((2,2,6,6-tetramethylpiperidin-4-yl)oxy)pyridazin-3-yl)isoquinolin-1(2H)-one]

Compound: CN(c1ccc(-c2cc3cnc(C4CC4)cc3cc2O)nn1)C1CC(C)(C)NC(C)(C)C1 [Example 36-3, 3-cyclopropyl-7-(6-(methyl(2,2,6,6-tetramethyl-piperidin-4-yl)amino)pyridazin-3-yl)isoquinolin-6-ol]
- EC50 (SMN2 Full reporter): 30 nM

Compound: CC(C)c1cc2cc(O)c(-c3ccc(N(C)C4CC(C)(C)NC(C)(C)C4)nn3)cc2cn1 [Example 36-4, 3-isopropyl-7-(6-(methyl(2,2,6,6-tetramethyl-piperidin-4-yl)amino)pyridazin-3-yl)isoquinolin-6-ol]
- EC50 (SMN2 Full reporter): 190 nM

- EC50 (SMN2 Full reporter): 580 nM
Compound: CCCc1cc2cc(O)c(-c3ccc(OC4CC(C)(C)NC(C)(C)C4)nn3)cc2cn1 [Example 36-5, 3-propyl-7-(6-((2,2,6,6-tetramethylpiperidin-4-yl)oxy)-pyridazin-3-yl)isoquinolin-6-ol]

- EC50 (SMN2 Full reporter): 640 nM
Compound: CC(C)c1cc2cc(O)c(-c3ccc(OC4CC(C)(C)NC(C)(C)C4)nn3)cc2cn1 [Example 36-6, 3-isopropyl-7-(6-((2,2,6,6-tetramethylpiperidin-4-yl)oxy)-pyridazin-3-yl)isoquinolin-6-ol]

Compound: CN(c1ccc(-c2cc3nccc(Cl)c3cc2O)nn1)C1CC(C)(C)NC(C)(C)C1 [Preparation 13, 4-chloro-7-(6-(methyl(2,2,6,6-tetramethylpiperidin-4-yl)amino)pyridazin-3-yl)quinolin-6-ol]
- SMN Activity (fold activation over DMSO control) (SMN protein; Biological Example 1, SMN ELISA, SMNdelta7 mouse myoblasts, 24 hours compound treatment): 2.6 fold
- EC50 (SMN protein; Biological Example 1, SMN ELISA, SMNdelta7 mouse myoblasts, 24 hours compound treatment, read-out: SMN Activity (EC50)): 7 nM

Compound: CN(c1ccc(-c2ccc3ncccc3c2)nn1)C1CC(C)(C)NC(C)(C)C1 [drawing 135 R = H]
- Fold activation (SMN protein; [1]): 2.2
- EC50 (SMN protein; [2]): 660 nM

Compound: CN(c1ccc(-c2ccc3cccnc3c2)nn1)C1CC(C)(C)NC(C)(C)C1 [drawing 136 R = H]
- Fold activation (SMN protein; [1]): 2.5
- EC50 (SMN protein; [2]): 370 nM

Compound: COc1cc2cccnc2cc1-c1ccc(N(C)C2CC(C)(C)NC(C)(C)C2)nn1 [drawing 136 R = OMe, 6-(6-Methoxyquinolin-7-yl)-N-methyl-N-(2,2,6,6-tetramethylpiperidin-4-yl)pyridazin-3-amine]
- Fold activation (SMN protein; [1]): 1.7
- EC50 (SMN protein; [2]): 1170 nM

Compound: CN(c1ccc(-c2ccc3ccncc3c2)nn1)C1CC(C)(C)NC(C)(C)C1 [drawing 137 R = H]
- Fold activation (SMN protein; [1]): 2.7
- EC50 (SMN protein; [2]): 250 nM

Compound: CN(c1ccc(-c2ccc3cnccc3c2)nn1)C1CC(C)(C)NC(C)(C)C1 [drawing 138 R = H]
- Fold activation (SMN protein; [1]): 2.7
- EC50 (SMN protein; [2]): 320 nM

Compound: CCOc1cc2nccnc2cc1-c1ccc(N(C)C2CC(C)(C)NC(C)(C)C2)nn1 [drawing 139 R = OEt, 6-(7-Ethoxyquinoxalin-6-yl)-N-methyl-N-(2,2,6,6-tetramethylpiperidin-4-yl)pyridazin-3-amine]
- SMN ELISA EC50 (SMN protein; [1]): Inactive
